PubChem BioAssay (NCI)
Several values for one entry are separate records, joined by “and”; a condition that tells them apart may be missing. Identical values can stand only once.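 Exposure lasted 48 hours, with cells grown in 96-well plates and compounds tested at five concentrations. GI50 = concentration required for 50% inhibition of growth. TGI is the concentration that stops growth completely.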

Key:
Assay in all cases: NCI-60 cell line screen, 48 h
[1] = test system: NCI-H23 lung
[2] = test system: NCI-H460 lung
[3] = test system: NCI-H522 lung
[4] = test system: NCI/ADR-RES ovarian
[5] = test system: OVCAR-3 ovarian
[6] = test system: OVCAR-4 ovarian
[7] = test system: OVCAR-5 ovarian
[8] = test system: OVCAR-8 ovarian
[9] = test system: PC-3 prostate
[10] = test system: RPMI-8226 leukemia
[11] = test system: RXF 393 renal
[12] = test system: SF-268 CNS
[13] = test system: SF-295 CNS
[14] = test system: SF-539 CNS
[15] = test system: SK-MEL-2 melanoma
[16] = test system: SK-MEL-28 melanoma
[17] = test system: SK-MEL-5 melanoma
[18] = test system: SK-OV-3 ovarian
[19] = test system: SN12C renal
[20] = test system: SNB-19 CNS
[21] = test system: SNB-75 CNS
[22] = test system: SR leukemia
[23] = test system: SW-620 colon
[24] = test system: T-47D breast
[25] = test system: TK-10 renal
[26] = test system: U251 CNS
[27] = test system: UACC-257 melanoma
[28] = test system: UACC-62 melanoma
[29] = test system: UO-31 renal

Which results are given for `O=C1C2=C(C(=O)c3ccccc31)C(O)(S(=O)(=O)O)C(O)(S(=O)(=O)O)C1N=CC=CC21` (stereo not drawn)?
GI50 [1]: 3.87 µM and 3.49 µM; TGI [1]: 27.6 µM and 18.8 µM; GI50 [2]: 2.84 µM and 1.39 µM; TGI [2]: 11.7 µM and 6.25 µM; GI50 [3]: 4.8 µM and 2.13 µM; TGI [3]: 39.6 µM and 5.71 µM; GI50 [4]: 2.45 µM and 1.27 µM; TGI [4]: 18.6 µM and 23.7 µM; GI50 [5]: 2.33 µM and 2.86 µM; TGI [5]: 6.78 µM and 11.7 µM; GI50 [6]: 3.66 µM and 2.99 µM; TGI [6]: > 100 µM; GI50 [7]: 8.7 µM and 9.31 µM; TGI [7]: > 100 µM and 45.7 µM; GI50 [8]: 3.46 µM and 4.23 µM; TGI [8]: > 100 µM and 18.6 µM; GI50 [9]: 4.69 µM and 3.2 µM; TGI [9]: > 100 µM and 29.6 µM; GI50 [10]: 4.99 µM and 3.99 µM; TGI [10]: > 100 µM and 27.6 µM; GI50 [11]: 5.73 µM and 2.98 µM; TGI [11]: 28.6 µM and 11.9 µM; GI50 [12]: 3.93 µM and 5.96 µM; TGI [12]: 41.4 µM and 32.1 µM; GI50 [13]: 2.57 µM and 1.13 µM; TGI [13]: 6.68 µM and 8.19 µM; GI50 [14]: 4.01 µM and 3.89 µM; TGI [14]: 19.9 µM and 18.1 µM; GI50 [15]: 10.1 µM and 9.93 µM; TGI [15]: 70.3 µM and 33.1 µM; GI50 [16]: 17 µM and 12.1 µM; TGI [16]: 96.1 µM and 28.6 µM; GI50 [17]: 3.96 µM and 3.63 µM; TGI [17]: 16.3 µM and 14.5 µM; GI50 [18]: 4.61 µM and 8.35 µM; TGI [18]: 38.3 µM and 32.4 µM; GI50 [19]: 4.84 µM and 3.25 µM; TGI [19]: > 100 µM and 14.1 µM; GI50 [20]: 4.28 µM and 5.5 µM; TGI [20]: 44.4 µM and > 100 µM; GI50 [21]: 4.08 µM and 3.17 µM; TGI [21]: 41.9 µM and 19.6 µM; GI50 [22]: 4.58 µM and 1.14 µM; TGI [22]: > 100 µM and 50.1 µM; GI50 [23]: 3.65 µM and 4.29 µM; TGI [23]: 96.9 µM and 17.2 µM; GI50 [24]: 3.97 µM and 4.7 µM; TGI [24]: 28.5 µM and 30.7 µM; GI50 [25]: 6.25 µM and 9.35 µM; TGI [25]: 68.3 µM and 28.8 µM; GI50 [26]: 3.85 µM and 2.69 µM; TGI [26]: 28.8 µM and 17.8 µM; GI50 [27]: 10.8 µM; TGI [27]: 47.7 µM; GI50 [28]: 6.17 µM and 4.52 µM; TGI [28]: 19.4 µM and 18.7 µM; GI50 [29]: 2.46 µM and 2.19 µM; TGI [29]: 27 µM and 13 µM
